According to PubChem BioAssay AID330 (DTP/NCI, 2004):
“And” between values parts separate entries of the source, which are not always exact repeats. Identical values can stand only once. Inconclusive results and toxic doses are left out. The calls were made as follows: active = survival T/C of 150% or more; inactive = T/C below 125% in these data.

Tested on: P388 leukemia ip, CD2F1 mice, survival T/C
Assay: NCI In Vivo Anticancer Drug Screen. Data for tumor model P388 Leukemia (intraperitoneal) in CD2F1 (CDF1) mice
Conditions: endpoint: median survival time, higher = longer survival
Procedure, shortened: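 Mice carrying the transplanted tumor received test compound or vehicle. Survival was recorded in each group, and the value is the treated-group measurement divided by that of the vehicle-treated control group.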

[1] = dose: 60.0 mg/kg/injection, schedule: Q01DX005 (ip), vehicle: Klucel (hydroxypropylcellulose) (HPC)
[2] = dose: 50.0 mg/kg/injection, schedule: Q01DX005 (ip), vehicle: saline with Tween-80
[3] = dose: 100.0 mg/kg/injection, schedule: Q01DX005 (ip), vehicle: saline with Tween-80
[4] = dose: 200.0 mg/kg/injection, schedule: Q01DX005 (ip), vehicle: saline with Tween-80
[5] = dose: 50.0 mg/kg/injection, schedule: Q01DX009 (ip), vehicle: saline with Tween-80
[6] = dose: 100.0 mg/kg/injection, schedule: Q01DX009 (ip), vehicle: saline with Tween-80
[7] = dose: 200.0 mg/kg/injection, schedule: Q01DX009 (ip), vehicle: saline with Tween-80
[8] = dose: 60.0 mg/kg/injection, schedule: Q01DX005 (ip), vehicle: saline with Tween-80
[9] = dose: 120.0 mg/kg/injection, schedule: Q01DX005 (ip), vehicle: saline with Tween-80
[10] = dose: 240.0 mg/kg/injection, schedule: Q01DX005 (ip), vehicle: saline with Tween-80
[11] = dose: 100.0 mg/kg/injection, schedule: Q01DX009 (ip), vehicle: saline
[12] = dose: 100.0 mg/kg/injection, schedule: Q01DX001 (ip), vehicle: Klucel (hydroxypropylcellulose) (HPC)
[13] = dose: 200.0 mg/kg/injection, schedule: Q01DX001 (ip), vehicle: Klucel (hydroxypropylcellulose) (HPC)
[14] = dose: 60.0 mg/kg/injection, schedule: Q01DX005 (ip), vehicle: saline
[15] = dose: 120.0 mg/kg/injection, schedule: Q01DX005 (ip), vehicle: saline

Measured: T/C

Oc1cc2cccc[n+]2c2ccccc12
inactive: dose: 15.0 mg/kg/injection, schedule: Q01DX005 (ip), vehicle: Klucel (hydroxypropylcellulose) (HPC) 99 % of control | dose: 30.0 mg/kg/injection, schedule: Q01DX005 (ip), vehicle: Klucel (hydroxypropylcellulose) (HPC) 101 % of control | [1] 118 % of control and 97 % of control

O=C1NCC2CCCC1C2 (stereo not given)
inactive: [2] 101 % of control | [3] 100 % of control | [4] 97 % of control

Cc1ccc(S(=O)(=O)Oc2ccc3oc4cccc(NCCN(C)C)c4c(=O)c3c2)cc1
inactive: [2] 95 % of control | [3] 97 % of control | [4] 93 % of control

c1ccc(C2=NN(c3ccccc3)C3C4CCC(C4)C23)cc1 (stereo not given)
inactive: dose: 100.0 mg/kg/injection, schedule: Q04DX003 (ip), vehicle: Klucel (hydroxypropylcellulose) (HPC) 93 % of control | dose: 200.0 mg/kg/injection, schedule: Q04DX003 (ip), vehicle: Klucel (hydroxypropylcellulose) (HPC) 93 % of control | dose: 400.0 mg/kg/injection, schedule: Q04DX003 (ip), vehicle: Klucel (hydroxypropylcellulose) (HPC) 91 % of control

CCc1cccc2c(NCCCCCCCCCCNc3c4ccccc4nc4c(CC)cccc34)c3ccccc3nc12
inactive: dose: 0.62 mg/kg/injection, schedule: Q## X009 (ip), vehicle: lactic acid 104 % of control | dose: 1.25 mg/kg/injection, schedule: Q## X009 (ip), vehicle: lactic acid 107 % of control | dose: 2.5 mg/kg/injection, schedule: Q## X009 (ip), vehicle: lactic acid 113 % of control

CC(=O)NC(C(=O)O)C(C)(C)SN=O (stereo not given)
inactive: [5] 93 % of control | [6] 98 % of control | [7] 95 % of control

Cc1ccc(NC(=O)CCCC(=O)C(C#N)c2ccccc2Cl)cc1C (stereo not given)
inactive: [8] 102 % of control | [9] 108 % of control | [10] 101 % of control

CC(=O)OCCSCCO
inactive: dose: 25.0 mg/kg/injection, schedule: Q01DX009 (ip), vehicle: water 94 % of control | dose: 50.0 mg/kg/injection, schedule: Q01DX009 (ip), vehicle: water 99 % of control | dose: 100.0 mg/kg/injection, schedule: Q01DX009 (ip), vehicle: water 99 % of control | dose: 200.0 mg/kg/injection, schedule: Q01DX009 (ip), vehicle: water 104 % of control | dose: 400.0 mg/kg/injection, schedule: Q01DX009 (ip), vehicle: water 99 % of control

Cc1cccc(N=Nc2c(-c3ccccc3)nn(C(N)=S)c2-c2ccccc2)c1C
inactive: dose: 73.9 mg/kg/injection, schedule: Q04DX002 (ip), vehicle: Klucel (hydroxypropylcellulose) (HPC) 96 % of control | dose: 147.0 mg/kg/injection, schedule: Q04DX002 (ip), vehicle: Klucel (hydroxypropylcellulose) (HPC) 96 % of control | dose: 295.0 mg/kg/injection, schedule: Q04DX002 (ip), vehicle: Klucel (hydroxypropylcellulose) (HPC) 100 % of control

CCCCC(N)P(=O)(O)O (stereo not given)
inactive: dose: 12.5 mg/kg/injection, schedule: Q01DX009 (ip), vehicle: saline 87 % of control | dose: 25.0 mg/kg/injection, schedule: Q01DX009 (ip), vehicle: saline 92 % of control | dose: 50.0 mg/kg/injection, schedule: Q01DX009 (ip), vehicle: saline 86 % of control | [11] 97 % of control

NC(=S)N/N=C1/C(=O)N(c2ccc(Cl)cc2)C(=O)C1C(=O)Nc1ccc(Cl)cc1 (stereo not given)
inactive: dose: 15.0 mg/kg/injection, schedule: Q01DX005 (ip), vehicle: saline with Tween-80 97 % of control | dose: 30.0 mg/kg/injection, schedule: Q01DX005 (ip), vehicle: saline with Tween-80 94 % of control | [8] 93 % of control and 94 % of control

CNc1nc2c(C)ccc3[nH]c(N(C)C)nc3c-2n1
inactive: dose: 25.0 mg/kg/injection, schedule: Q01DX005 (ip), vehicle: Klucel (hydroxypropylcellulose) (HPC) 100 % of control | dose: 50.0 mg/kg/injection, schedule: Q01DX005 (ip), vehicle: Klucel (hydroxypropylcellulose) (HPC) 99 % of control | dose: 100.0 mg/kg/injection, schedule: Q01DX005 (ip), vehicle: Klucel (hydroxypropylcellulose) (HPC) 91 % of control

O=C(Oc1cccc2cccnc12)c1ccc2ccccc2n1
inactive: dose: 100.0 mg/kg/injection, schedule: Q04DX002 (ip), vehicle: saline with Tween-80 100 % of control | dose: 200.0 mg/kg/injection, schedule: Q04DX002 (ip), vehicle: saline with Tween-80 96 % of control

CCOc1ccc(-n2c(=O)c(N=Nc3ccc(OC)cc3)c(O)n(-c3ccccc3Cl)c2=S)cc1
inactive: dose: 50.0 mg/kg/injection, schedule: Q01DX001 (ip), vehicle: Klucel (hydroxypropylcellulose) (HPC) 97 % of control | [12] 94 % of control | [13] 94 % of control

Cc1ccc(S(=O)(=O)N2C(=N)C(=S)N(C)C2=O)cc1
inactive: dose: 60.0 mg/kg/injection, schedule: Q01DX005 (ip), vehicle: Klucel + Tween-80 101 % of control | dose: 120.0 mg/kg/injection, schedule: Q01DX005 (ip), vehicle: Klucel + Tween-80 111 % of control | dose: 240.0 mg/kg/injection, schedule: Q01DX005 (ip), vehicle: Klucel + Tween-80 114 % of control

C[Si](C)(CNCCN)c1ccccc1
inactive: [8] 101 % of control | [14] 91 % of control | [9] 105 % of control | [15] 93 % of control | [10] 101 % of control

C=CN1C(=O)N(C=C)C(C)(CC(C)C)C1=O (stereo not given)
inactive: [5] 100 % of control | [6] 100 % of control | [7] 112 % of control

CC(=O)C(=CN(C)c1ccc([N+](=O)[O-])cc1)C(C)=O
inactive: dose: 6.25 mg/kg/injection, schedule: Q01DX009 (ip), vehicle: saline with Tween-80 111 % of control | dose: 12.5 mg/kg/injection, schedule: Q01DX009 (ip), vehicle: saline with Tween-80 92 % of control | dose: 25.0 mg/kg/injection, schedule: Q01DX009 (ip), vehicle: saline with Tween-80 100 % of control | [11] 91 % of control | dose: 200.0 mg/kg/injection, schedule: Q01DX009 (ip), vehicle: saline 91 % of control

NC(=S)N/N=C/c1cc(Cl)ccc1O
inactive: dose: 100.0 mg/kg/injection, schedule: Q04DX003 (ip), vehicle: saline with Tween-80 99 % of control | dose: 200.0 mg/kg/injection, schedule: Q04DX003 (ip), vehicle: saline with Tween-80 98 % of control | dose: 400.0 mg/kg/injection, schedule: Q04DX003 (ip), vehicle: saline with Tween-80 93 % of control

C=CCCCCn1c2ccccc2c2c(C)c3cnccc3c(C)c21
inactive: [5] 100 % of control | [6] 115 % of control | [7] 115 % of control

O=C1NC(=O)C2(O)NC(=O)NC2(O)N1 (stereo not given)
inactive: dose: 25.0 mg/kg/injection, schedule: Q01DX005 (ip), vehicle: saline 100 % of control | dose: 50.0 mg/kg/injection, schedule: Q01DX005 (ip), vehicle: saline 106 % of control | dose: 100.0 mg/kg/injection, schedule: Q01DX005 (ip), vehicle: saline 101 % of control | dose: 200.0 mg/kg/injection, schedule: Q01DX005 (ip), vehicle: saline 116 % of control | dose: 400.0 mg/kg/injection, schedule: Q01DX005 (ip), vehicle: saline 116 % of control

CCN(CC)c1ccc2cc(C(=O)c3cccs3)c(=O)oc2c1
inactive: [8] 104 % of control | [9] 96 % of control | [10] 103 % of control

CCc1nnc2cccc(Cl)n12
inactive: [12] 100 % of control | [13] 109 % of control | dose: 400.0 mg/kg/injection, schedule: Q01DX001 (ip), vehicle: Klucel (hydroxypropylcellulose) (HPC) 100 % of control

Nc1ccc(-c2c[nH]c(=O)c([N+](=O)[O-])c2)cc1
inactive: [5] 99 % of control | [6] 99 % of control | [7] 100 % of control

CN1N(C)P(=S)(Oc2ccccc2)N(C)N(C)P1(=S)Oc1ccccc1 (stereo not given)
inactive: [1] 98 % of control | dose: 120.0 mg/kg/injection, schedule: Q01DX005 (ip), vehicle: Klucel (hydroxypropylcellulose) (HPC) 98 % of control | dose: 240.0 mg/kg/injection, schedule: Q01DX005 (ip), vehicle: Klucel (hydroxypropylcellulose) (HPC) 93 % of control

COC(=O)c1[nH]c(=S)[nH]c(=O)c1C
inactive: [2] 89 % of control | [3] 97 % of control

O=C1C=CC(Nc2ccccc2[N+](=O)[O-])C1Nc1ccccc1[N+](=O)[O-] (stereo not given)
inactive: [8] 114 % of control | [9] 113 % of control

O=C1OCC/C1=C\N1CCCCC1
inactive: [14] 102 % of control | [15] 100 % of control | dose: 240.0 mg/kg/injection, schedule: Q01DX005 (ip), vehicle: saline 106 % of control
